In BindingDB's records for doi:10.1016/j.bmcl.2020.127353 (Lanzhou University, 2020):
Where a SMILES comes first, the peptide text is derived from it. The star is where a group is joined. Stearoyl = CCCCCCCCCCCCCCCCCC(=O)*

Test: Binding affinity to NK1R (unknown origin) expressed in HEK293 cells assessed as reduction in cell viability incubated for 96 hrs by MTT assay

In the case of `CCCCCCCCCCCCCCCCCC(=O)N[C@@H](CCCCN)C(=O)N[C@@H](Cc1c[nH]c2ccccc12)C(=O)N[C@@H](CCCCN)C(=O)N[C@@H](CC(C)C)C(=O)N[C@@H](CCC(=O)O)C(=O)N[C@@H](CCCCN)C(=O)N[C@@H](CCCCN)C(=O)N[C@H](C(=O)NCC(=O)N[C@@H](C)C(=O)N[C@H](C(=O)N[C@@H](CC(C)C)C(=O)N[C@H](C(=O)N[C@@H](CS)C(=O)N[C@H](C(=O)N[C@@H](CC(C)C)C(=O)N[C@@H](CCCNC(=N)N)C(=O)N1CCC[C@H]1C(=O)N[C@@H](CCCCN)C(=O)N1CCC[C@H]1C(=O)N[C@@H](CCC(N)=O)C(=O)N[C@@H](CCC(N)=O)C(=O)N[C@@H](Cc1ccccc1)C(=O)N[C@@H](Cc1ccccc1)C(=O)NCC(=O)N[C@@H](CC(C)C)C(=O)N[C@@H](CCSC)C(N)=O)C(C)C)[C@@H](C)CC)C(C)C)[C@@H](C)CC` (Stearoyl-KWKLEKKIGAVLICVLRPKPQQFFGLM-NH2), the EC50 is reported as 5.3 µM.
